The source of these data is patent US6900200B2, “Tricyclic hydroxy carboxamides and derivatives thereof tocolytic oxytocin receptor antagonists” (Wyeth, priority 2001, dated 2005).

The target in the first test is T1, human oxytocin receptor (Homo sapiens, UniProt P30559).
T1 construct: host or cells: CHO cells, pcDNA3.1 vector
T1 sequence (P30559 1-389): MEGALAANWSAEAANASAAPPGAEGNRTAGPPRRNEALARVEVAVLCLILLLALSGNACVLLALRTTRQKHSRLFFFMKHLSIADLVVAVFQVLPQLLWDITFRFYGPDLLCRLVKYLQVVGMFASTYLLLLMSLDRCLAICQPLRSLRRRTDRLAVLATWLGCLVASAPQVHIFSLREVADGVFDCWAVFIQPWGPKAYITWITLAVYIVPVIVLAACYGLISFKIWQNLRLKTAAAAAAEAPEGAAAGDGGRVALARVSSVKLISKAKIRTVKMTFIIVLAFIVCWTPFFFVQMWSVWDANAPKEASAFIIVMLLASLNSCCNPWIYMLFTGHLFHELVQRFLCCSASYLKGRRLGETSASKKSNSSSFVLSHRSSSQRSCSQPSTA
In words: Oxytocin binding in CHO cell membranes expressing human oxytocin receptors ([3H]oxytocin radioligand binding). The settings on record: @ 100 nM, read-out: OT % inhibition @ 100 nM. The source says:
Oxytocin Binding in Chinese Hamster Ovary Cell Membranes Expressing Human Oxytocin Receptors
Chinese Hamster Ovary (CHO) cells stably transfected with the human oxytocin receptor (cf. Tanizawa et al., U.S. Pat. No. 5,466,584 (1995) to Rohto Pharmaceutical Co. Ltd., Osaka, Japan) were obtained from M. Thibonnier, Case Western Reserve University School of Medicine, Cleveland, Ohio.
A. Passaging and Amplification of Cells
CHO cells transfected with the human oxytocin receptors obtained from M. Thibonnier (pcDNA3.1 vector) are allowed to grow to confluency (approx. >90%) in T-150 flasks under sterile conditions, in a cell culture medium of F-12 Nutrient Mixture (HAM) with L-glutamine (Gibco Cat. #11765-054) containing 15 mM HEPES (Gibco Cat. #15630-080), 1% antibiotic/antimycotic (add 5 mL 100×, Gibco Cat. #15240-062 per 500 mL F-12), 400 μg/mL of Geneticin (add 4 mL of 50 mg/mL per 500 mL F-12) and 10% Fetal Bovine Serum (Qualified, heat inactivated, Gibco Cat. #16140-063). The medium is removed by aspiration and the cells are washed with 10 mL of Hank's Balanced Salt solution (Gibco Cat. #14175-095). The salt solution is removed by aspiration and the cells trypsinized with 5 mL of trypsin-EDTA (0.05% trypsin, 0.53 mM EDTA-4Na, Gibco Cat. #25300-070) for 1 min. The trypsin is removed by aspiration and the cells dislodged by tapping. Cell Culture medium (e.g. 30 mL for 1:30 split) is immediately added and mixed well to inactivate trypsin. 1 mL of detached cells is added to new culture flasks containing fresh Cell Culture medium (e.g. into 25 mL per T-150 flask), and mixed gently. The cells are incubated at 37° C. in 5% CO2. The medium is changed at 3 to 4 days interval (or as appropriate). The cells grow to confluency (approx. >75%-95%) within 7-8 days. All steps are done under sterile conditions.
The cells are washed twice gently with Hank's Balanced Salt solution (e.g., use 10 mL per T-1 50 flask). The excess solution is removed and the cells bathed for 15-30 min. in an enzyme-free Cell Dissociation Buffer (e.g., use 8 mL Hank's Based, Gibco Cat. #13150-016 per T-150 flask) until cells are loosened. The contents are transferred to centrifuge tubes (50 mL size) kept in ice bath. All subsequent steps are done at 4° C. The tubes are centrifuged at 300×g for 15 min (1380 rpm on SORVAL, Model RT6000D, using rotor for 50 mL tubes). The supernatant is discarded and the cells suspended in homogenizing buffer (10 mM Tris-HCl containing 0.25 M sucrose and 1 mM EDTA, pH 7.4) ensuring that the volume of the buffer is about ten times the volume of the cell pellet. The cells are pooled into a centrifuge tube (50 mL) and homogenized with a Polytron at setting 6 for 10 sec. The homogenate is transferred into a Potter-Elvjehm homogenizer and homogenized with 3 strokes. The homogenate is centrifuged at 1500×g for 10 min at 4° C. (3100 rpm using SORVAL, model RT6000D, using rotor for 50 mL tubes). The pellet is discarded. The supernatant is centrifuged at 100,000×g for 60 min. at 4° C. (Beckman L8-80M ultracentrifuge; spin at 37,500 rpm with rotor type 70 Ti for 50 mL tubes; 38,000 rpm with type 80Ti for 15 mL tubes; or 35,800 rpm with rotor type 45Ti). The supernantant is discarded and the pellet suspended in 3 to 4 mL of Tris buffer (50 mM TRIS—HCl, pH 7.4). The protein content is estimated by the Bradford or Lowry method. The volume of the membrane suspension is adjusted with the membrane buffer (50 mM Tris-HCl containing 0.1% BSA and 0.1 mM PMSF) to give 3.0 mg/mL (or as appropriate) of protein. The membranes are aliquoted and stored at −70° C.
C. Radioligand Binding Assay
In wells of a 96-well format microtiter plate, is added 90, 110 or 130 μL (to make up a final volume of 200 μL) of assay buffer containing 50 mM of Tris-HCl (pH 7.4), […], 1 mg % aprotinin, 1 mg % leupeptin, 2 mg % 1,10-phenanthroline, 10 mg % trypsin inhibitor, and 0.1 mM PMSF. […]
For the molecule `COc1ccccc1-c1ccc(C(=O)N2Cc3ccc(C(=O)N(C)C[C@@H](O)CO)n3Cc3ccccc32)cc1C` (single isomer, unassigned) [Example 16], the inhibition at 0.1 µM turned out to be 101%.
The same measure, in the same setting: the value for `COc1cc2c(cc1OC)N(C(=O)c1ccc(-c3ccccc3C(F)(F)F)c(C)c1)Cc1ccc(C(=O)N(CCO)CCO)n1C2` [Example 19, N,N-Bis(2-Hydroxyethyl)-7,8-dimethoxy-10-{[2-methyl-2′-trifluoromethyl-[1,1′-biphenyl]-4-yl]carbonyl}-10,11-dihydro-5H-pyrrolo[2,1-c][1,4]benzodiazepine-3-carboxamide] was 27%; that for `COc1cccc(-c2ccc(C(=O)N3Cc4ccc(C(=O)N5CCN(CCO)CC5)n4Cc4ccccc43)cc2C)c1` [Example 44, [4-(2-Hydroxyethyl)-1-piperazinyl]{10-[(3′-methoxy-2-methyl[1,1′-biphenyl]-4yl)carbonyl]-10,11-dihydro-5H-pyrrolo[2,1-c][1,4]benzodiazepin-3-yl}methanone] was 83%; that for `COc1cc2c(cc1OC)N(C(=O)c1ccc(-c3ccccc3C(F)(F)F)c(C)c1)Cc1ccc(C(=O)N(C)CC(O)CO)n1C2` (stereo not drawn) [Example 18, N-(2,3-Dihydroxypropyl)-7,8-dimethoxy-N-methyl-10-{[2-methyl-2′-trifluoromethyl-[1,1′-biphenyl]-4-yl]carbonyl}-10,11-dihydro-5H-pyrrolo[2,1-c][1,4]benzodiazepine-3-carboxamide] was 36%.
On to `COc1ccccc1-c1ccc(C(=O)N2Cc3ccc(C(=O)N4CCN(CCO)CC4)n3Cc3ccccc32)cc1C` [Example 40, [4-(2-Hydroxyethyl)-1-piperazinyl]{10-[(2′-methoxy-2-methyl[1,1′-biphenyl]-4yl)carbonyl]-10,11-dihydro-5H-pyrrolo[2,1-c][1,4]benzodiazepin-3-yl}methanone], for which the inhibition at 0.1 µM was 93%.

The same test, now with this note: value printed in parentheses, read-out: OT (IC50).
Take `Cc1ccc(-c2ccc(C(=O)N3Cc4ccc(C(=O)N(C)CC(O)CO)n4Cc4ccccc43)cc2)c2ccccc12` (stereo not drawn) [Example 26, 10-{[4-(4-Methyl-naphthalen-1-yl)phenyl]carbonyl}-10,11-dihydro-5H-pyrrolo[2,1-c][1,4]benzodiazepine-3-carboxylic acid (2,3-dihydroxy-propyl)-N-methylamide]: the IC50 was found to be 55.8 nM.
Regarding `COc1ccccc1-c1ccc(C(=O)N2Cc3ccc(C(=O)N(C)C[C@H](O)[C@@H](O)[C@H](O)[C@H](O)CO)n3Cc3ccccc32)cc1C` [Example 17, 10-[(2′-Methoxy-2-methyl-[1,1′-biphenyl]-4-yl)carbonyl]-10,11-dihydro-5H-pyrrolo[2,1-c][1,4]benzodiazepine-3-carboxylic acid methyl-[(2S,3R,4R, 5R)-2,3,4,5,6-pentahydroxy-hexyl)-amide], the IC50 was 1.03 nM.
Consider `COCCN1CCN(C(=O)c2ccc3n2Cc2ccccc2N(C(=O)c2ccc(-c4ccccc4C(F)(F)F)c(C)c2)C3)CC1` [Example 7, Methyl 2-{4-[(10-{[2-methyl-2′-trifluoromethyl-[1,1′-biphenyl]-4-yl]carbonyl}-10,11-dihydro-5H-pyrrolo[2,1-c][1,4]benzodiazepin-3-yl)carbonyl]piperazin-1-yl}ethyl ether], for which the half-inhibitory concentration (IC50) came out at 30.7 nM.
Same read-out and setting: the value for `Cc1cc(C(=O)N2Cc3ccc(C(=O)N(C)C[C@H](O)[C@@H](O)[C@H](O)[C@H](O)CO)n3Cc3ccccc32)ccc1-c1ccccc1C(F)(F)F` [Example 4, 10-[(2-Methyl-2′-trifluoromethyl-[1,1′-biphenyl]-4-yl)carbonyl]-10,11-dihydro-5H-pyrrolo[2,1-c][1,4]benzodiazepine-3-carboxylic acid methyl-((2S,3R,4R,5R)-2,3,4,5,6-pentahydroxy-hexyl)-amide] was 3.43 nM.
Turning to “{(2S)-1-[(10-{[2-Methoxy-2(trifluoromethyl)[1,1′-biphenyl]-4-yl]carbonyl}-10,11-dihydro-5H-pyrrolo[2,1-c][1,4]benzodiazepin-3-yl)carbonyl]pyrrolidin-2-yl}-methanol [Example 36]”, the IC50 stood at 7.95 nM.
On the same count and under the same terms, the value for `COc1cc(C(=O)N2Cc3ccc(C(=O)N(C)CC(O)CN(C)C)n3Cc3ccccc32)ccc1-c1ccccc1C(F)(F)F` (stereo not drawn) [Example 22, N-[(3-Dimethylamino)-2-hydroxy-propyl]-10-{[2-methoxy-2′-trifluoromethyl-[1,1′-biphenyl]-4-yl]carbonyl}-N-methyl-10,11-dihydro-5H-pyrrolo[2,1-c][1,4]benzodiazepine-3-carboxamide] was 1.47 nM.
As to `COc1cc(-c2ccccc2C)c(Cl)cc1C(=O)N1Cc2ccc(C(=O)N3CCN(CCO)CC3)n2Cc2ccccc21` [Example 39, {10-[(6-Chloro-3-methoxy-2′-methyl[1,1′-biphenyl]-4-yl)carbonyl]-10,11-dihydro-5H-pyrrolo[2,1-c][1,4]benzodiazepin-3-yl}[4-(2-hydroxyethyl)-1-piperazinyl]methanone], the half-inhibitory concentration (IC50) amounted to 3 nM.
Take `Cc1cc(C(=O)N2Cc3ccc(C(=O)NC(CO)(CO)CO)n3Cc3ccccc32)ccc1-c1ccccc1C(F)(F)F` [Example 3, 10-[(2-Methyl-2′-trifluoromethyl-[1,1′-biphenyl]-4-yl)carbonyl]-10,11-dihydro-5H-pyrrolo[2,1-c][1,4]benzodiazepine-3-carboxylic acid (2-hydroxy-1,1-bis-hydroxymethyl-ethyl)-amide]: the IC50 was found to be 6.53 nM.
On the same count and under the same terms, the value for `COCC(CN(C)C(=O)c1ccc2n1Cc1ccccc1N(C(=O)c1ccc(-c3ccccc3C(F)(F)F)c(C)c1)C2)OC` (stereo not drawn) [Example 10, N-(2,3-Dimethoxypropyl)-N-methyl-10-{[2-methyl-2′-trifluoromethyl-[1,1′-biphenyl]-4-yl]carbonyl}-10,11-dihydro-5H-pyrrolo[2,1-c][1,4]benzodiazepine-3-carboxamide] was 5.31 nM.
Same read-out and setting: the value for `COC[C@H](O)CN1CCN(C(=O)c2ccc3n2Cc2ccccc2N(C(=O)c2ccc(-c4ccccc4C(F)(F)F)c(C)c2)C3)CC1` [Example 8, (2R)-1-Methoxy-3-{4-[(10-{[2-methyl-2′-trifluoromethyl-[1,1′-biphenyl]-4-yl]carbonyl}-10,11-dihydro-5H-pyrrolo[2,1-c][1,4]benzodiazepin-3-yl)carbonyl]piperazin-1-yl}propan-2-ol] was 7.55 nM.

Broadly, the inhibition is the relative decrease from the control value, in per cent. The IC50 is the concentration at which inhibition is half-maximal.
